According to US5763413A, “Lewis-associated compound, process for producing the same, and anti-inflammatory” (MECT Corporation, priority 1993, dated 1998):

Key:
[1] = system: adhesion of HL-60 cells to HUVEC monolayers (ELAM-1); experiment: Effect on the adhesion of HL-60 cells to HUVEC monolayers mediated by an adhesion molecule; assay type: cell-based, human; details: 10 μg/ml final, in lecithin/cholesterol liposome, IL-1β-stimulated HUVEC
Protocol: (Effect on the Adhesion of Cultured Cells Mediated by a Adhesion Molecule)
(2) Experimental methods and materials
HUVECs (Human umbilical vein endothelial cells: KURABO) were suspended in E-GM UV medium at the concentration of 5×10^3 cells/ml, 100-μl each aliquot thereof was distributed into a 96-well microplate and incubated in a 5% CO2 containing air at 37° C. with the medium being replaced fresh 24 h later. The culture was continued for another 5 days, and the following experiment was performed after the confluent growth of the cells was confirmed.
In order to express ELAM-1 on HUVEC monolayers, IL-1β (IL-1β, Human, Recombinant: Genzym) was added to said culture (final concentration, 10 units/ml) and incubated for 4 h, then the test compound (final concentration, 10 μg/ml) containing liposome prepared with lecithin and cholesterol was added and further incubated or 1 h. Then human promyelocytic leukemia cell line […] which had been cultured was added to said culture at the final concentration of 5×10^5 cells/ml and incubated for 15 min. After washing said culture with the culture medium 3 times to remove the non-adhering HL-60 cells, said culture was gently stirred overnight to strip HL-60 cells adhering to HUVEC monolayers and count. Percent inhibition of adhesion (%) was calculated from the following equation [Margaret, J. et al., Proc. Natl. Acad. Sci. USA, 88, 6224 (1991)]. […]

[2] = Simple acute toxicity test (intravenous injection); assay type: in vivo, male mice of ddY strain; details: 50 mg/kg, ddY mice; for Mortality: i.v. (tail vein); for mortality (in words): i.v.
Protocol: Example of Test 1 (Simple Acute Toxicity Test)
The simple acute toxicity test was carried out by an intravenous injection of compounds of the present invention.
Into the tail vein of male mice of ddY strain weighing 18~20 g which have been kept under the conditions at the temperature of 23°±1° C. and in the humidity of 55 ±7% were injected a solution of the compound of the present invention dissolved in the physiological saline containing the desired dose per 20 g body weighing 0.2 ml. Two dosages of which were 50 mg/kg and 500 mg/kg body weight were used.

passive Arthus reaction = experiment: Anti-inflammatory activity test: passive Arthus reaction (Example of Test 2); assay type: in vivo, male guinea pigs of the Hartley strain; details: Table 21; 0.1 mg/kg i.v., 30 min before antigen
Protocol: Example of Test 2 (Anti-inflammatory Activity Test)
Male guinea pigs of the Hartley strain weighing 200~250 g were used.
(2) Experimental Materials
The anti-ovalbumin rabbit serum (PCA titer=1/80,000) and ovalbumin were used as the antiserum and antigen, respectively.
The passive Arthus reaction was performed according to the method of Katayama et al. [Katayama, S. et al., Arzeim-Forsch., 31, 1196 (1981)]. That is, guinea pigs were sensitized by an intravenous injection of said anti-ovalbumin rabbit serum (2.5 ml/kg). Thirty minutes after the injection, the Arthus reaction was induced by the intradermal injection of an antigen solution (0.05 ml) containing 0.10 mg of ovalbumin to the abdomen shaved the day before. Two hours after the antigen challenge, the area of intradermal bleeding was measured and used as the index representing the grade of inflammatory reaction. Test compounds were intravenously injected 30 min before the antigen injection. Four guinea pigs per each group were used.
The percent inhibi- is expressed as the bleeding area of the challenged site (%) of the animal group injected with each compound relative to that (100%) of the group administered with the physiological saline.

SMILES	Adhesion inhibitory activity [1] [%]	Mortality [2]	mortality (in words) [2]	Percent inhibition (passive Arthus reaction) (passive Arthus reaction) [%]
CCCCCCCCCCCCCC=CC(O)C(COC1OC(CO)C(OC2OC(CO)C(O)C(OC3OC(CO)C(OC4OC(CO)C(O)C(OS(=O)(=O)[O-])C4OS(=O)(=O)[O-])C(OC4OC(C)C(O)C(O)C4O)C3NC(C)=O)C2O)C(O)C1O)NC(=O)CCCCCCCCCCCCCCCCCCCCCCC.[Na+].[Na+] (centres unmarked) [Compound 77]	21.0 ± 15.0	0/3	no mortality was observed	40.4 ± 5.1
CCCCCCCCCCCCCC=CC(O)C(COC1OC(CO)C(OC2OC(CO)C(O)C(OC3OC(CO)C(OC4OC(CO)C(O)C(OS(=O)(=O)[O-])C4O)C(OC4OC(C)C(O)C(O)C4O)C3NC(C)=O)C2O)C(O)C1O)NC(=O)CCCCCCCCCCCCCCCCCCCCCCC.[Na+] (centres unmarked) [Compound 78]	20.7 ± 3.7	0/3	no mortality was observed	32.5 ± 7.3
